Results taken from patent US12404283B2, “c-MYC mRNA translation modulators and uses thereof in the treatment of cancer” (Anima Biotech Inc., priority 2022, dated 2025).
Counter-ions that a name gives are not always drawn.

What follows are molecules tested on c-Myc (assay: c-Myc immunofluorescence assay). Conditions: A549 cells, 24 hours treatment, anti-c-Myc immunofluorescence.
Format: cell-based, human
How it was run: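 A549 cells grown 48 h, exposed 24 h to rising compound concentrations, then fixed, permeabilised and stained for c-Myc plus DAPI. Nuclear-segmented c-Myc fluorescence quantified by high-content imaging at 20×; EC50 from logistic dose–response fits.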

Molecule	Myc Efficacy (−LogEC50)
CNC(=O)c1ccc(-c2cn3c(n2)sc2cc(C(=O)NCCC(=O)N4CCCCC4)ccc23)cc1 [compound 191, 2-(4-(methylcarbamoyl)phenyl)-N-(3-oxo-3-(piperidin-1-yl)propyl)benzo[d]imidazo [2,1-b]thiazole-7-carboxamide]	+ (+ >3 and <5)
CCN(CC)CCNC(=O)Nc1ccc2c(c1)sc1nc(-c3cccc(C)c3)cn12 [compound 267, 1-(2-(diethylamino)ethyl)-3-(2-(m-tolyl)benzo[d]imidazo[2,1-b]thiazol-7-yl)urea]	+ (+ >3 and <5)
CCN(CC)CCCNC(=O)c1ccc2c(c1)sc1nc(-c3ccc(C(=O)NC(C)C)cc3)cn12 [compound 283, N-(3-(diethylamino)propyl)-2-(4-(isopropylcarbamoyl)phenyl) benzo[d]imidazo[2,1-b]thiazole-7-carboxamide]	+ (+ >3 and <5)
CNC(=O)c1ccc(-c2cn3c(n2)sc2cc(C(=O)NC4CC(O)C4(C)C)ccc23)cc1 (centres unmarked) [compound 258, N-(3-hydroxy-2,2-dimethylcyclobutyl)-2-(4-(methylcarbamoyl)phenyl) benzo[d]imidazo[2,1-b]thiazole-7-carboxamide]	+ (+ >3 and <5)
CCN(CC)CCCC(=O)Nc1ccc2c(c1)sc1nc(-c3ccc(C(=O)NC)cc3F)cn12 [compound 365, 4-(7-(4-(diethylamino)butanamido)benzo[d]imidazo[2,1-b]thiazol-2-yl)-3-fluoro-N-methylbenzamide]	++ (++ ≥5 and <6)
CCN1CCC(CNC(=O)c2ccc3c(c2)sc2nc(-c4ccc(C(=O)NC)cc4)cn23)C1 (centres unmarked) [compound 233, N-((1-ethylpyrrolidin-3-yl)methyl)-2-(4-(methylcarbamoyl)phenyl) benzo[d]imidazo[2,1-b]thiazole-7-carboxamide]	− (− ≤3)
NCc1ccc(-c2cn3c(n2)sc2cc(C(=O)NCCCN4CCCCC4)ccc23)cc1C(F)(F)F [compound 378, 2-(4-(aminomethyl)-3-(trifluoromethyl)phenyl)-N-(3-(piperidin-1-yl)propyl)benzo[d]imidazo [2,1-b]thiazole-7-carboxamide]	+++ (+++ ≥6)
CN1CCC(NC(=O)c2ccc3c(c2)sc2nc(-c4ccc(C5(O)CCNCC5)cc4F)cn23)CC1 [compound 528, 2-(2-fluoro-4-(4-hydroxypiperidin-4-yl)phenyl)-N-(1-methylpiperidin-4-yl)benzo[d]imidazo[2,1-b]thiazole-7-carboxamide]	+++ (+++ ≥6)
CC(=O)Nc1ccc2c(c1)sc1nc(-c3ccc(C4CCCN4)cc3F)cn12 (centres unmarked) [Compound 548, N-(2-(2-fluoro-4-(pyrrolidin-2-yl)phenyl)benzo[d]imidazo[2,1-b]thiazol-7-yl)acetamide]	+++ (+++ ≥6)
O=C(NCCCN1CCC(F)CC1)c1ccc2c(c1)sc1nc(-c3cc(F)c(C4CCCN4)c(Cl)c3)cn12 (centres unmarked) [compound 485, 2-(3-chloro-5-fluoro-4-(pyrrolidin-2-yl)phenyl)-N-(3-(4-fluoropiperidin-1-yl)propyl)benzo[d]imidazo[2,1-b]thiazole-7-carboxamide]	+++ (+++ ≥6)
CCN(CC)CCCNC(=O)c1ccc2c(c1)sc1nc(-c3ccc(C(=O)NC4CCNC4)cc3)cn12 (centres unmarked) [compound 296, N-(3-(diethylamino)propyl)-2-(4-(pyrrolidin-3-ylcarbamoyl)phenyl)benzo[d] imidazo[2,1-b]thiazole-7-carboxamide]	+ (+ >3 and <5)
NC1(c2ccc(-c3cn4c(n3)sc3cc(C(=O)NCCCN5CCC(F)CC5)ccc34)c(F)c2)CC1 [Compound 474, 2-(4-(1-aminocyclopropyl)-2-fluorophenyl)-N-(3-(4-fluoropiperidin-1-yl)propyl)benzo[d]imidazo[2,1-b]thiazole-7-carboxamide]	+++ (+++ ≥6)
N-(2- (dimethylamino)propyl)-2- (4- (methylcarbamoyl)phenyl) benzo[d]imidazo[2,1-b] thiazole-7-carboxamide [compound 239]	+ (+ >3 and <5)
CCN(CC)CCCNC(=O)c1ccc2c(c1)sc1nc(-c3ccc(CN)cc3)cn12 [compound 163, 2-(4-(aminomethyl)phenyl)-N-(3-(diethylamino)propyl)benzo [d]imidazo[2,1-b]thiazole-7-carboxamide]	+++ (+++ ≥6)
CCN(CC)CCCNC(=O)c1ccc2c(c1)sc1nc(-c3ccc(C(C)C)cc3)cn12 [compound 136, N-(3-(diethylamino)propyl)-2-(4-isopropylphenyl)benzo[d] imidazo[2,1-b]thiazole-7-carboxamide formate]	++ (++ ≥5 and <6)
CNC(=O)c1ccc(-c2cn3c(n2)sc2cc(C(=O)N[C@H]4[C@@H]5CNC[C@@H]54)ccc23)cc1 [compound 253, N-((1R,5S,6s)-3-azabicyclo[3.1.0]hexan-6-yl)-2-(4-(methylcarbamoyl)phenyl) benzo[d]imidazo[2,1-b]thiazole-7-carboxamide]	+ (+ >3 and <5)

Molecule	Myc Efficacy (−LogEC50)
Cc1cccc(-c2cn3c(n2)sc2cc(C(=O)NCCCN4CC5CC4CN5C)ccc23)c1 (centres unmarked) [compound 248, N-(3-(5-methyl-2,5-diazabicyclo[2.2.1]heptan-2-yl)propyl)-2-(m-tolyl)benzo[d]imidazo[2,1-b]thiazole-7-carboxamide]	+ (+ >3 and <5)
CCN(CC)CCCNC(=O)c1ccc2c(c1)sc1nc(-c3cc(C)ccn3)cn12 [compound 194, N-(3-(diethylamino)propyl)-2-(4-methylpyridin-2-yl)benzo[d]imidazo[2,1-b]thiazole-7-carboxamide]	+ (+ >3 and <5)
CNC(=O)c1ccc(-c2cn3c(n2)sc2cc(C(=O)N[C@@H]4CCCN(C)C4)ccc23)cc1 [compound 301, (R)-2-(4-(methylcarbamoyl)phenyl)-N-(1-methylpiperidin-3-yl)benzo[d]imidazo[2,1-b]thiazole-7-carboxamide]	+ (+ >3 and <5)
NCc1ccc(-c2cn3c(n2)sc2cc(C(=O)NCCCN4CCCCC4)ccc23)cc1C(F)F [compound 379, 2-(4-(aminomethyl)-3-(difluoromethyl)phenyl)-N-(3-(piperidin-1-yl)propyl)benzo[d]imidazo [2,1-b]thiazole-7-carboxamide]	+++ (+++ ≥6)
Cc1cccc(-c2cn3c(n2)sc2cc(C(=O)N[C@H]4C[C@@H](N5CCCCC5)C4)ccc23)c1 [compound 138, N-((1s,3s)-3-(piperidin-1-yl)cyclobutyl)-2-(m-tolyl)benzo[d]imidazo[2,1-b]thiazole-7-carboxamide]	++ (++ ≥5 and <6)
CNC(=O)c1ccc(-c2cn3c(n2)sc2cc(C(=O)N[C@H]4CCN(C5CCOCC5)C4)ccc23)cc1 [compound 209, (S)-2-(4-(methylcarbamoyl)phenyl)-N-(1-(tetrahydro-2H-pyran-4-yl)pyrrolidin-3-yl)benzo[d]imidazo[2,1-b]thiazole-7-carboxamide]	+ (+ >3 and <5)
CCN(CC)CCCNC(=O)c1ccc2c(c1)sc1nc(-c3ccccc3Cl)cn12 [compound 124, 2-(2-ehlorophenyl)-N-(3-(diethylamino)propyl)benzo [d]imidazo[2,1-b]thiazole-7-carboxamide]	++ (++ ≥5 and <6)
CC(=O)NCCCNC(=O)c1ccc2c(c1)sc1nc(-c3ccc(C)cc3)cn12 [compound 110, N-(3-acetamidopropyl)-2-(p-tolyl)benzo[d]imidazo[2,1-b]thiazole-7-carboxamide]	− (− ≤3)
O=C(NCCCN1CCCCC1)c1ccc2c(c1)sc1nc(-c3ccc(C4CCCN4)cc3)cn12 (centres unmarked) [compound 373, N-(3-(piperidin-1-yl)propyl)-2-(4-(pyrrolidin-2-yl)phenyl)benzo[d]imidazo [2,1-b]thiazole-7-carboxamide]	+++ (+++ ≥6)
O=C(NCCCN1CCCCC1)c1ccc2c(c1)sc1nc(-c3ccc(C4CCCN4)cc3F)cn12 (centres unmarked) [compound 416, 2-(2-fluoro-4-(pyrrolidin-2-yl)phenyl)-N-(3-(piperidin-1-yl)propyl)benzo[d]imidazo [2,1-b]thiazole-7-carboxamide]	+++ (+++ ≥6)
CNC(=O)c1ccc(-c2cn3c(n2)sc2cc(C(=O)NCCN4CCCCC4C)ccc23)cc1 (centres unmarked) [compound 262, 2-(4-(methylcarbamoyl)phenyl) N-(2-(2-methylpiperidin-1-yl)ethyl)benzo[d]imidazo [2,1-b]thiazole-7-carboxamide]	+ (+ >3 and <5)
CNCCCCNC(=O)c1ccc2c(c1)sc1nc(-c3ccc(C(=O)NC)cc3)cn12 [compound 229, N-(4-(methylamino)butyl)-2-(4-(methylcarbamoyl)phenyl) benzo[d]imidazo[2,1-b]thiazole-7-carboxamide]	+ (+ >3 and <5)
CNC(=O)c1ccc(-c2cn3c(n2)sc2cc(C(=O)NC4(CN)CCC4)ccc23)cc1 [compound 199, N-(1-(aminomethyl)cyclobutyl)-2-(4-(methylcarbamoyl)phenyl) benzo[d]imidazo[2,1-b]thiazole-7-carboxamide]	+ (+ >3 and <5)
NC(CO)c1ccc(-c2cn3c(n2)sc2cc(C(=O)NCCCN4CCC(F)CC4)ccc23)c(F)c1 (centres unmarked) [Compound 539, 2-(4-(1-amino-2-hydroxyethyl)-2-fluorophenyl)-N-(3-(4-fluoropiperidin-1-yl)propyl)benzo[d]imidazo[2,1-b]thiazole-7-carboxamide]	+++ (+++ ≥6)
CCN(CC)CCCNC(=O)c1ccc2c(c1)sc1nc(-c3ccc(C(=O)NCCN)cc3)cn12 [compound 297, 2-(4-((2-aminoethyl)carbamoyl)phenyl)-N-(3-(diethylamino)propyl)benzo [d]imidazo[2,1-b]thiazole-7-carboxamide]	+ (+ >3 and <5)
CN[C@H]1C[C@@H](NC(=O)c2ccc3c(c2)sc2nc(-c4cccc(C)c4)cn23)C1 [compound 157, N-((1s,3s)-3-(methylamino)cyclobutyl)-2-(m-tolyl)benzo[d]imidazo[2,1-b]thiazole-7-carboxamide formate]	++ (++ ≥5 and <6)
